Assays:
[1] = system: Myzus persicae; test: Myzus persicae test (cabbage leaf dip, kill rate, Colby synergy); type: in vivo
[2] = system: Phaedon cochleariae larvae; test: Phaedon cochleariae larvae test (cabbage leaf dip, kill rate, Colby synergy)

Cn1cc(C(=O)Nc2ccccc2C2CC2C2CC2)c(C(F)F)n1 (stereo not drawn) [Compound (I-4)]
0%: Kill in % after 1d ([1]; Table A1, 200 ppm) | Kill in % after 1d ([1]; Table A2, 200 ppm) | Kill in % after 4d ([2]; Table B1, 200 ppm) | Kill in % after 6d ([2]; Table B2, 200 ppm, after 6 d) | Kill in % after 4d ([2]; Table B3, 200 ppm) | Kill in % after 4d ([2]; Table B3, 400 ppm)
